Source: article PMC6245281, “Cytotoxic Steroidal Saponins from the Flowers of Allium leucanthum” (Molecules, 2008)

What was measured:
Type in all cases: cell-based
[1] = system: normal skin fibroblast (WS1) cell line; assay: Cytotoxicity assay (resazurin reduction test), WS1; conditions: Homo sapiens, WS1 healthy cells, 48 h incubation, read-out: IC50 (μM ± SD) WS1
Protocol: (§1) Lung carcinoma (A549), colon adenocarcinoma (DLD-1) and normal skin fibroblast (WS1) human cell lines were purchased from the American Type Culture Collection (ATCC). All cell lines were cultured in minimum essential medium containing Earle’s salts and L-glutamine (Mediatech Cellgro, VA), to which 10% fetal bovine serum (Hyclone), vitamins (1X), penicillin (100 I.U./mL), streptomycin (100 μg/ml), essential amino acids (1X) and sodium pyruvate (1X) (Mediatech Cellgro, VA) were added. Cells were kept at 37°C in a humidified environment containing 5% CO2.
(§2) Exponentially growing cells were plated at a density of 5 × 10^3 cells per well in 96-well microplates (Costar, Corning inc.) in 100 µl of culture medium and were allowed to adhere for 16 hours before treatment. Then, 100 µl of increasing concentrations of extract or pure compounds dissolved in culture medium and DMSO (Sigma-Aldrich) were added. The final concentration of solvent in the culture medium was maintained at 0.25% (v/v) to avoid solvent toxicity. Cells were incubated for 48 h in the absence or in the presence of extract. Cytotoxicity was assessed using the resazurin reduction test as described by O’Brien) Fluorescence was measured on an automated 96-well Fluoroskan Ascent Fl plate reader (Labsystems) using an excitation wavelength of 530 nm and an emission wavelength of 590 nm. Cytotoxicity was expressed as the concentration of extract or compound inhibiting cell growth by 50% (IC50).

[2] = system: colon adenocarcinoma (DLD-1) cell line; assay: Cytotoxicity assay (resazurin reduction test), DLD-1; conditions: Homo sapiens, DLD-1 cells, 48 h incubation, read-out: IC50 (μM ± SD) DLD-1
Protocol: as §1, §2

[3] = system: lung carcinoma (A549) cell line; assay: Cytotoxicity assay (resazurin reduction test), A549; conditions: Homo sapiens, A549 cells, 48 h incubation, read-out: IC50 (μM ± SD) A549
Protocol: as §1, §2

SMILES	IC50 [1]	IC50 [2]	IC50 [3]
O=c1[nH]cc(F)c(=O)[nH]1 [5-fluorouracil, reference compound]	20 ± 2 µM	11 ± 2 µM	48 ± 18 µM
CC1CCC2(OC1)OC1CC3C4CC(O)C5CC(OC6OC(CO)C(OC7OC(CO)C(O)C(OC8OCC(O)C(O)C8O)C7OC7OC(CO)C(O)C(O)C7O)C(O)C6O)C(O)CC5(C)C4CCC3(C)C1C2C (centres unmarked) [Aginoside (3), aginoside]	3.6 ± 0.2 µM	7.9 ± 0.5 µM	5.8 ± 0.9 µM
C[C@@H]1CC[C@@]2(OC1)O[C@H]1C[C@H]3[C@@H]4C[C@@H](O)[C@H]5C[C@@H](O[C@@H]6O[C@H](CO)[C@H](O[C@@H]7O[C@H](CO)[C@@H](O)[C@H](O[C@@H]8OC[C@@H](O)[C@H](O)[C@H]8O)[C@H]7O[C@@H]7O[C@H](CO)[C@@H](O)[C@H](O)[C@H]7O)[C@H](O)[C@H]6O)CC[C@]5(C)[C@H]4CC[C@]3(C)[C@H]1[C@@H]2C [Compound 4, (25R)-5α-spirostane-3β,6β-diol 3-O-β-D-glucopyranosyl-(1→2)-[β-D-xylopyranosyl-(1→3)]-β-D-glucopyranosyl-(1→4)-β-D-galactopyranoside]	3.1 ± 0.1 µM	13 ± 1 µM	9 ± 1 µM
C[C@@H]1CC[C@@]2(OC1)O[C@H]1C[C@H]3[C@@H]4C[C@@H](O)[C@H]5C[C@@H](O[C@@H]6O[C@H](CO)[C@H](O[C@@H]7O[C@H](CO)[C@@H](O)[C@H](O)[C@H]7O[C@@H]7O[C@H](CO)[C@@H](O)[C@H](O)[C@H]7O)[C@H](O)[C@H]6O)[C@H](O)C[C@]5(C)[C@H]4CC[C@]3(C)[C@H]1[C@@H]2C [Compound 6, (25R)-5α-spirostane-2α,3β,6β-triol 3-O-β-D-glucopyranosyl-(1→2)-β-D-glucopyranosyl-(1→4)-β-D-galactopyranoside]	14.5 ± 0.5 µM	22 ± 2 µM	22 ± 2 µM
C[C@@H]1CC[C@@]2(OC1)O[C@H]1C[C@H]3[C@@H]4C[C@@H](O)[C@H]5C[C@@H](O[C@@H]6O[C@H](CO)[C@H](O[C@@H]7O[C@H](CO)[C@@H](O)[C@H](O[C@@H]8O[C@H](CO)[C@@H](O)[C@H](O)[C@H]8O)[C@H]7O[C@@H]7O[C@H](CO)[C@@H](O)[C@H](O[C@@H]8O[C@H](CO)[C@@H](O)[C@H](O)[C@H]8O)[C@H]7O)[C@H](O)[C@H]6O)CC[C@]5(C)[C@H]4CC[C@]3(C)[C@H]1[C@@H]2C [Compound 7, (25R)-5α-spirostane-3β,6β-diol 3-O-β-D-glucopyranosyl-(1→3)-β-D-glucopyranosyl-(1→2)-[β-D-glucopyranosyl-(1→3)]-β-D-glucopyranosyl-(1→4)-β-D-galactopyranoside]	7.7 ± 0.2 µM	8.9 ± 0.2 µM	7.8 ± 0.4 µM
CC1CCC2(OC1)OC1CC3C4CC(O)C5CC(OC6OC(CO)C(OC7OC(CO)C(O)C(OC8OC(CO)C(O)C(O)C8O)C7OC7OC(CO)C(O)C(O)C7O)C(O)C6O)CCC5(C)C4CCC3(C)C1C2C (centres unmarked) [Eruboside B (2), eruboside B]	3.6 ± 0.2 µM	8.2 ± 0.4 µM	5.3 ± 0.5 µM
COc1cc([C@@H]2c3cc4c(cc3[C@@H](O[C@@H]3O[C@@H]5CO[C@@H](C)O[C@H]5[C@H](O)[C@H]3O)[C@H]3COC(=O)[C@H]23)OCO4)cc(OC)c1O [Etoposide, reference compound]	–	4.8 ± 0.8 µM	1.1 ± 0.1 µM
C[C@@H]1CC[C@@]2(OC1)O[C@H]1C[C@H]3[C@@H]4C[C@@H](O)[C@H]5C[C@@H](O[C@@H]6O[C@H](CO)[C@H](O[C@@H]7O[C@H](CO)[C@@H](O)[C@H](O[C@@H]8O[C@H](CO)[C@@H](O)[C@H](O)[C@H]8O)[C@H]7O[C@@H]7O[C@H](CO)[C@@H](O)[C@H](O[C@@H]8O[C@H](CO)[C@@H](O)[C@H](O)[C@H]8O)[C@H]7O)[C@H](O)[C@H]6O)[C@H](O)C[C@]5(C)[C@H]4CC[C@]3(C)[C@H]1[C@@H]2C [Leucospiroside A (5), (25R)-5α-spirostane-2α,3β,6β-triol 3-O-β-glucopyranosyl-(1→3)-β-glucopyranosyl-(1→2)-[β-glucopyranosyl-(1→3)]-β-glucopyranosyl-(1→4)-β-galactopyranoside]	4.55 ± 0.07 µM	7.2 ± 0.1 µM	5 ± 0.1 µM
CC1CCC2(OC1)OC1CC3C4CC(O)C5CC(OC6OC(CO)C(OC7OC(CO)C(O)C(OC8OC(CO)C(O)C(O)C8O)C7OC7OC(CO)C(O)C(O)C7O)C(O)C6O)C(O)CC5(C)C4CCC3(C)C1C2C (centres unmarked) [Yayoisaponin C (1), yayoisaponin C]	3 ± 0.2 µM	5.6 ± 0.2 µM	3.7 ± 0.7 µM
